Marks after values point to notes of the source that are not given here.
System: TH2
Experiment: Immune health biomarkers (T helper subsets): TH2
Type: in vivo, Swiss Albino mice
Conditions: T helper subset in blood after 28 days, mice, n = 8
Experimental: (§1) PMI Nutrition International, Brentwood, MO, USA). Distilled water was provided ad libitum. All animal experiments were reviewed and approved by the Institutional Animal Ethical Committee (IAEC) of Radiant Research Services Pvt. Ltd (Bangalore, India). All research was conducted in accordance with the guidelines of the committee for the purpose of control and supervision of experiments on animals (CPCSEA Registration Number-1803/PO/[…]). […] (1) vehicle control; […] (4) paraxanthine+dileucine; […] The dose administered to the mice was calculated using US Food and Drug Administration for human equivalence doses (HED), assuming a human weight of 60 kg. […] Dosing was conducted via oral gavage using disposable polypropylene syringes with sterilized stainless steel gavage tubes. The food intake and water consumption were monitored daily, and BW was recorded weekly. The last dose on day 28 was given 1 hour prior to testing. Serum and plasma samples were separated by centrifuging the blood at 8000 rpm for 10 mins and analyze the below mentioned biomarkers, Biomarkers: TC, TG, LDL and HDL, CRP, Serum lactate, Ammonia, Glucose, NO, IL-2, IL-6, IL-10. Blood was collected in EDTA tubes for below mentioned biomarkers, Immune health Biomarkers (T helper subsets): […]

Compound | TH2(%)
CC(C)C[C@H](NC(=O)[C@@H](N)CC(C)C)C(=O)O [Dileucine, L-Leucyl-L-leucine] | 53.68*** %

Same assay, conditions: vs Exercise Control, 28 days

Compound | TH2 Change over control [%]
CC(C)C[C@H](NC(=O)[C@@H](N)CC(C)C)C(=O)O [Dileucine, L-Leucyl-L-leucine] | 368

System: TH17
Experiment: Immune health biomarkers (T helper subsets): TH17
Type: in vivo, Swiss Albino mice
Conditions: T helper subset in blood after 28 days, mice, n = 8
Experimental: as §1

Compound | TH17(%)
CC(C)C[C@H](NC(=O)[C@@H](N)CC(C)C)C(=O)O [Dileucine, L-Leucyl-L-leucine] | 29.62*** %

Same assay, conditions: vs Exercise Control, 28 days

Compound | TH17 Change over control [%]
CC(C)C[C@H](NC(=O)[C@@H](N)CC(C)C)C(=O)O [Dileucine, L-Leucyl-L-leucine] | 712

System: low-density lipids (LDL)
Experiment: Blood lipids: LDL
Type: in vivo, Swiss Albino mice
Conditions: after 28 days of supplementation, mice, n = 8
Experimental: (§2) Eight 8-week-old male Swiss Albino mice per experimental group were housed in an animal room at a constant temperature (22±3° C.) and humidity (30%-70%) under a 12:12 h light-dark cycle with standard laboratory diet (Purina 5L79, Rat and Mouse 18% protein; PMI Nutrition International, Brentwood, MO, USA). Distilled water was provided ad libitum. All animal experiments were reviewed and approved by the Institutional Animal Ethical Committee (IAEC) of Radiant Research Services Pvt. Ltd (Bangalore, India). All research was conducted in accordance with the guidelines of the committee for the purpose of control and supervision of experiments on animals (CPCSEA Registration Number-1803/PO/RcBi/S/2015/CPCSEA).
(§3) After one week of acclimation, the animals were randomly divided by body weight into different groups (n=8 per group in each test) for oral treatment once a day, at approximately same time each day (+1 hour), for 28 consecutive days: (1) vehicle control; (2) paraxanthine (3) dileucine; (4) paraxanthine+dileucine; (5) L-arginine; (6) L-arginine+dileucine; (7) L-citrulline; and (8) L-citrulline+dileucine. The dose administered to the mice was calculated using US Food and Drug Administration for human equivalence doses (HED), assuming a human weight of 60 kg. The following HED were used in this study: 2,000 mg dileucine (RAMPS™, Ingenious Ingredients, L.P., Lewisville, TX, USA; mouse 411 mg/kg bw), 100 mg paraxanthine, (ENFINITY™, Ingenious Ingredients, L.P Lewisville, TX, USA; mouse dose: 20.5 mg/kg bw/day); 3,000 mg L-arginine (Nanjing Nutrabuilding Bio-tech Co., LTD., No. 270 Jiqingmen Strect, Suning Huigu, Building E6, Room 2105, Nanjing, China 210017; mouse 616.55 mg/kg bw), 3,000 mg L-citrulline (Nanjing Nutrabuilding Bio-tech Co., LTD., No. 270 Jiqingmen Street, Suning Huigu, Building E6, Room 2105, Nanjing, China 210017; mouse 616.55 mg/kg bw). 0.5% Carboxy Methyl Cellulose sodium was used as vehicle and the test item formulations were prepared daily. Dosing was conducted via oral gavage using disposable polypropylene syringes with sterilized stainless steel gavage tubes. The food intake and water consumption were monitored daily, and BW was recorded weekly. The last dose on day 28 was given 1 hour prior to testing.
(§4) All animals were euthanized by 95% CO2 after 28 days of following their assigned treatment. Blood was collected immediately after euthanization by the retro-orbital route and was immediately centrifuged at 1500×g for 10 min at 4° C. before having all serum transferred into cryogenic tubes and stored at −80° C.
(§5) Serum and plasma samples were separated by centrifuging the blood at 8000 rpm for 10 mins and analyze the below mentioned biomarkers, Biomarkers: TC, TG, LDL and HDL, CRP, Serum lactate, Ammonia, Glucose, NO, IL-2, IL-6, IL-10. Blood was collected in EDTA tubes for below mentioned biomarkers, Immune health Biomarkers (T helper subsets): TH1, TH2, TH17, Tfh, iTreg.

Compound | LDL [mg/dL]
CC(C)C[C@H](NC(=O)[C@@H](N)CC(C)C)C(=O)O [Dileucine, L-Leucyl-L-leucine] | 42.05

Same assay, conditions: vs Exercise Control, 28 days

Compound | LDL Change over control [%]
CC(C)C[C@H](NC(=O)[C@@H](N)CC(C)C)C(=O)O [Dileucine, L-Leucyl-L-leucine] | −3

System: IL-2
Experiment: Inflammatory markers: IL-2
Type: in vivo, Swiss Albino mice
Conditions: after 28 days of supplementation and exercise, mice, n = 8
Experimental: as §2, §3, §4, §5

Compound | IL-2 (ng/L)
CC(C)C[C@H](NC(=O)[C@@H](N)CC(C)C)C(=O)O [Dileucine, L-Leucyl-L-leucine] | 46.4*** ng/L

Same assay, conditions: vs Exercise Control, 28 days

Compound | IL-2 Change over control [%]
CC(C)C[C@H](NC(=O)[C@@H](N)CC(C)C)C(=O)O [Dileucine, L-Leucyl-L-leucine] | 24

System: IL-6
Experiment: Inflammatory markers: IL-6
Type: in vivo, Swiss Albino mice
Conditions: after 28 days of supplementation and exercise, mice, n = 8
Experimental: as §2, §3, §4, §5

Compound | IL-6 (pg/ml)
CC(C)C[C@H](NC(=O)[C@@H](N)CC(C)C)C(=O)O [Dileucine, L-Leucyl-L-leucine] | 343** pg/ml

Same assay, conditions: vs Exercise Control, 28 days

Compound | IL-6 Change over control [%]
CC(C)C[C@H](NC(=O)[C@@H](N)CC(C)C)C(=O)O [Dileucine, L-Leucyl-L-leucine] | −7

System: Tfh
Experiment: Immune health biomarkers (T helper subsets): Tfh
Type: in vivo, Swiss Albino mice
Conditions: T helper subset in blood after 28 days, mice, n = 8
Experimental: as §2, §3, §5

Compound | Tfh(%) (mg/L)
CC(C)C[C@H](NC(=O)[C@@H](N)CC(C)C)C(=O)O [Dileucine, L-Leucyl-L-leucine] | 55.72

Same assay, conditions: vs Exercise Control, 28 days

Compound | Tfh Change over control [%]
CC(C)C[C@H](NC(=O)[C@@H](N)CC(C)C)C(=O)O [Dileucine, L-Leucyl-L-leucine] | 613

System: IL-10
Experiment: Inflammatory markers: IL-10
Type: in vivo, Swiss Albino mice
Conditions: after 28 days of supplementation and exercise, mice, n = 8
Experimental: as §2, §3, §4, §5

Compound | IL-10 (pg/ml)
CC(C)C[C@H](NC(=O)[C@@H](N)CC(C)C)C(=O)O [Dileucine, L-Leucyl-L-leucine] | 569.36*** pg/ml

Same assay, conditions: vs Exercise Control, 28 days

Compound | IL-10 Change over control [%]
CC(C)C[C@H](NC(=O)[C@@H](N)CC(C)C)C(=O)O [Dileucine, L-Leucyl-L-leucine] | 8

System: not listed separately
Experiment: Effect on body weight, 28-day oral supplementation with exercise
Type: in vivo, Swiss Albino mice
Conditions: Day −0 (baseline), mice, n = 8
Experimental: as §2, §3
Individual body weights were recorded at receipt, on the day of randomization, on the first day of treatment before dosing (Day 1) and weekly thereafter. The body weight changes for all the animals were calculated and reported along with the body weight data.

Compound | Body Weight (grams) Day −0 [grams]
CC(C)C[C@H](NC(=O)[C@@H](N)CC(C)C)C(=O)O [Dileucine, L-Leucyl-L-leucine] | 24.09

Same assay, conditions: Day −0 to Day −28, oral once a day

Compound | Weight gain in grams [grams]
CC(C)C[C@H](NC(=O)[C@@H](N)CC(C)C)C(=O)O [Dileucine, L-Leucyl-L-leucine] | 9.14

Same assay, conditions: Day −28, oral once a day for 28 days, mice, n = 8

Compound | Body Weight (grams) Day −28
CC(C)C[C@H](NC(=O)[C@@H](N)CC(C)C)C(=O)O [Dileucine, L-Leucyl-L-leucine] | 33.23* grams

Same assay, conditions: weight gain vs Exercise Control, 28 days

Compound | Percentage weight loss over control [%]
CC(C)C[C@H](NC(=O)[C@@H](N)CC(C)C)C(=O)O [Dileucine, L-Leucyl-L-leucine] | −15

System: not listed separately
Experiment: Forelimb grip strength test
Type: in vivo, Swiss Albino mice
Conditions: Day −0 (baseline), mice, n = 8
Experimental: as §2, §3
The forelimb grip strength was measured on day 0 and day 28 by using a stainless-steel grill to assess muscle strength (Orchid Scientific & Innovative India Pvt Ltd, India). Grip strength was measured one hour after treatment. Briefly, each mouse was placed on a grill chamber and the steel bar is inverted; grip strength is measured by recording the time each animal holds the steel bar. The maximum time for each trial was six minutes. Each animal performed three independent trials separated by six minutes intervals and the mean of the three trials was calculated.

Compound | Forelimb grip strength (gf) Day −0 [gf]
CC(C)C[C@H](NC(=O)[C@@H](N)CC(C)C)C(=O)O [Dileucine, L-Leucyl-L-leucine] | 99.25

Same assay, conditions: Day −28, one hour after treatment, oral once a day for 28 days

Compound | Forelimb grip strength (gf) Day −28
CC(C)C[C@H](NC(=O)[C@@H](N)CC(C)C)C(=O)O [Dileucine, L-Leucyl-L-leucine] | 149.0*** gf

Same assay, conditions: Day −28 minus Day −0

Compound | Increase strength over Day −0 [gf]
CC(C)C[C@H](NC(=O)[C@@H](N)CC(C)C)C(=O)O [Dileucine, L-Leucyl-L-leucine] | 49.75

Same assay, conditions: increase vs Exercise Control, 28 days

Compound | Percentage Increase over control (grip strength) [%]
CC(C)C[C@H](NC(=O)[C@@H](N)CC(C)C)C(=O)O [Dileucine, L-Leucyl-L-leucine] | 76

System: C-reactive protein (CRP)
Experiment: Inflammatory markers: CRP
Type: in vivo, Swiss Albino mice
Conditions: after 28 days of supplementation and exercise, mice, n = 8
Experimental: as §2, §3, §4, §5

Compound | CRP (mg/L)
CC(C)C[C@H](NC(=O)[C@@H](N)CC(C)C)C(=O)O [Dileucine, L-Leucyl-L-leucine] | 0.63*** mg/L

Same assay, conditions: vs Exercise Control, 28 days

Compound | CRP Change over control [%]
CC(C)C[C@H](NC(=O)[C@@H](N)CC(C)C)C(=O)O [Dileucine, L-Leucyl-L-leucine] | −18

System: nitric oxide
Experiment: NO signaling: nitric oxide level
Type: in vivo, Swiss Albino mice
Conditions: after 28 days of supplementation and exercise, mice, n = 8
Experimental: as §2, §3, §4, §5

Compound | Nitric oxide (μmol/L) (mg/L)
CC(C)C[C@H](NC(=O)[C@@H](N)CC(C)C)C(=O)O [Dileucine, L-Leucyl-L-leucine] | 84.83*** μmol/L

Same assay, conditions: vs Exercise Control, 28 days

Compound | Nitric oxide Change over control [%]
CC(C)C[C@H](NC(=O)[C@@H](N)CC(C)C)C(=O)O [Dileucine, L-Leucyl-L-leucine] | 34

System: high-density lipids (HDL)
Experiment: Blood lipids: HDL
Type: in vivo, Swiss Albino mice
Conditions: after 28 days of supplementation, mice, n = 8
Experimental: as §2, §3, §4, §5

Compound | HDL [mg/dl]
CC(C)C[C@H](NC(=O)[C@@H](N)CC(C)C)C(=O)O [Dileucine, L-Leucyl-L-leucine] | 37.63* mg/dl

Same assay, conditions: vs Exercise Control, 28 days

Compound | HDL Change over control [%]
CC(C)C[C@H](NC(=O)[C@@H](N)CC(C)C)C(=O)O [Dileucine, L-Leucyl-L-leucine] | 8

From patent US20240299484A1, “DILEUCINE COMPOSITIONS AND METHODS OF USE THEREOF” (Ingenious Ingredients, LP, priority 2023, published 2024)
